Test results: ChEMBL document CHEMBL5505955, “Exploring the potential of histone demethylase inhibition in multi-therapeutic approaches for cancer treatment” (Eur J Med Chem, 2024)
Values belong to the molecule of their own block, whether it stands above or below them.

How the values were obtained:
[1] = molecular target: T1, Amine oxidase [flavin-containing] A (Homo sapiens, UniProt P21397); test: Inhibition of MAO-A (unknown origin) measured by MAO-GloTM method
T1 sequence (P21397 whole entry): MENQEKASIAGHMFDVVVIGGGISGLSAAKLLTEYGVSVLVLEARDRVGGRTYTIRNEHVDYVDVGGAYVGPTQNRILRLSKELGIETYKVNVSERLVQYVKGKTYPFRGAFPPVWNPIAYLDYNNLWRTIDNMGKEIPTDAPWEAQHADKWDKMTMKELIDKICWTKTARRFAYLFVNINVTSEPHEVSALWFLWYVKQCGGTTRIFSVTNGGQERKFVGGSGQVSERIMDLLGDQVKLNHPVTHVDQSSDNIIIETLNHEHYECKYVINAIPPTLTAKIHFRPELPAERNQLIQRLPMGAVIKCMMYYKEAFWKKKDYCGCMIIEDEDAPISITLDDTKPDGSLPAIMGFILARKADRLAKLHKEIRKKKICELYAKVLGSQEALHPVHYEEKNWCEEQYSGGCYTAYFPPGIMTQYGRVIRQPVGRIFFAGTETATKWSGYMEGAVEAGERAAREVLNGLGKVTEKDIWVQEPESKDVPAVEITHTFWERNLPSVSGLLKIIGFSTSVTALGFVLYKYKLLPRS

[2] = molecular target: T2, Lysine-specific histone demethylase 1A (Homo sapiens, UniProt O60341); test: Inhibition of human recombinant LSD1 incubated for 60 mins by fluorescence based analysis
[3] = test system: MIA PaCa-2; test: Antiproliferative activity against human MIA PaCa-2 cells assessed as reduction in cell viability incubated for 72 hrs by MTT assay; type: functional, cell-based; conditions: MIA PaCa-2, 72 h
[4] = test system: A2058; test: Antiproliferative activity against human A2058 cells assessed as reduction in cell viability incubated for 72 hrs by MTT assay; type: functional, cell-based; conditions: A2058, 72 h
[5] = test system: A549; test: Antiproliferative activity against human A549 cells assessed as reduction in cell viability incubated for 72 hrs by MTT assay; type: functional, cell-based; conditions: A549, 72 h
[6] = test system: HT-29; test: Antiproliferative activity against human HT-29 cells assessed as reduction in cell viability incubated for 72 hrs by MTT assay; type: functional, cell-based; conditions: HT-29, 72 h
[7] = test system: Bel-7402; test: animal or person; conditions: Mus musculus, Bel-7402, po, 504 h, read-out: TGI
[8] = molecular target: T2, Lysine-specific histone demethylase 1A
[9] = molecular target: Histone deacetylase 1 (Homo sapiens, UniProt Q13547); test: Inhibition of HDAC1 (unknown origin)
Histone deacetylase 1, sequence (Q13547 whole entry): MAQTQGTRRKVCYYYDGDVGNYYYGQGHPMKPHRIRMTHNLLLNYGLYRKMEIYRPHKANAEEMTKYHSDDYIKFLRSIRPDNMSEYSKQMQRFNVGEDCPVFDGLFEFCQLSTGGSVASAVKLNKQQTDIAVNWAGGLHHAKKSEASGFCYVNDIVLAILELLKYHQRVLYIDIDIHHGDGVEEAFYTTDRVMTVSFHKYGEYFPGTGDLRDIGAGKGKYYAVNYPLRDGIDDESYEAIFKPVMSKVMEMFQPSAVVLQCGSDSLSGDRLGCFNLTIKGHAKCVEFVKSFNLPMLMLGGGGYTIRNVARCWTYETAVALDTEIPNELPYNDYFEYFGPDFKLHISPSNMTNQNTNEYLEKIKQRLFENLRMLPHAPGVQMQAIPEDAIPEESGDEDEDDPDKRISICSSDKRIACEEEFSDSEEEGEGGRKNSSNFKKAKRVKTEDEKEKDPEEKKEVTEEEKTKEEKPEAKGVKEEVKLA

[10] = test system: NCI-H1975; test: cells; conditions: Homo sapiens

SMILES: COC1=CC(=O)OC(/C=C/c2ccccc2)C1 (stereo unspecified)
IC50 [1]: 1.29 nM
IC50 [2]: 3850 nM

IC50 [3]: 9500 nM
IC50 [5]: 2400 nM
IC50 [6]: 950 nM
SMILES: O=C(N/N=C/c1ccccc1O)c1cccc(Cl)c1
IC50 [4]: 6500 nM

SMILES: COc1ccc(S(=O)(=O)N(CCSC(=S)N2CCN(C)CC2)c2cc(OC)c(OC)c(OC)c2)cc1
inhibition in vivo at 60 mg/kg [7]: 43%

IC50 [8]: 3850 nM
IC50 [9]: 42.5 nM
SMILES: NC1CC1c1ccc(NC(=O)CCC(=O)NCCCNCCCCNCCCNC(=O)c2ccc(NC(=O)CCCCCCC(=O)NO)cc2)cc1 (stereo unspecified)

IC50 [8]: 1700 nM
SMILES: O=C(O)c1ccc(CN2CCC(CN[C@@H]3C[C@H]3c3ccccc3)CC2)cc1 [GSK2879552]
